In patent publication US12102087B2 (priority 2012, dated 2024):
Read-outs that look alike come from different tables or passages of the source.

Assays:
Format in all cases: in vivo
[1] = tested on: Phytophthora infestans; assay: whole plant or invertebrate; details: for pest or weed control at 0.2 ppm: application rate 0.2 ppm a.i.
[2] = tested on: Venturia inaequalis; assay: Venturia test (apples)/preventive; details: for pest or weed control at 2 ppm: application rate 2 ppm a.i.; for pest or weed control at 4 ppm: application rate 4 ppm a.i.
From the text: (§1) A synergistic effect of fungicides is always present when the fungicidal activity of the active compound combinations exceeds the total of the activities of the active compounds when applied individually. The expected activity for a given combination of two active compounds can be calculated as follows (cf. Colby, S. R., “Calculating Synergistic and Antagonistic Responses of Herbicide Combinations”, Weeds 1967, 15, 20-22):
(§2) If • X is the efficacy when active compound A is applied at an application rate of m ppm (or g/ha), • Y is the efficacy when active compound B is applied at an application rate of n ppm (or g/ha), • E is the efficacy when the active compounds A and B are applied at application rates of m and n ppm (or g/ha), respectively, and
Venturia test (apples)/preventive • Solvent: 24.5 parts by weight of acetone • 24.5 parts by weight of dimethylacetamide • Emulsifier: 1 part by weight of alkylaryl polyglycol ether
(§3) To produce a suitable preparation of active compound, 1 part by weight of active compound is mixed with the stated amounts of solvent and emulsifier, and the concentrate is diluted with water to the desired concentration.
To test for preventive activity, young plants are sprayed with the preparation of active compound at the stated rate of application. After the spray coating has dried on, the plants are inoculated with an aqueous conidia suspension of the causal agent of apple scab (Venturia inaequalis) and then remain for 1 day in an incubation cabinet at approximately 20° C. and a relative atmospheric humidity of 100%.
The plants are then placed in a greenhouse at approximately 21° C. and a relative atmospheric humidity of approximately 90%.
The test is evaluated 10 days after the inoculation. 0% means an efficacy which corresponds to that of the untreated control, while an efficacy of 100% means that no disease is observed.

[3] = tested on: Sphaerotheca fuliginea; assay: Sphaerotheca test (cucumbers)/preventive
From the text: as §1, §2
Sphaerotheca Test (Cucumbers)/Preventive • Solvent: 24.5 parts by weight of acetone • 24.5 parts by weight of dimethylacetamide • Emulsifier: 1 part by weight of alkylaryl polyglycol ether
as §3
(§4) To test for preventive activity, young plants are sprayed with the preparation of active compound at the stated rate of application. After the spray coating has dried on, the plants are inoculated with an aqueous spore suspension of Sphaerotheca fuliginea. The plants are then placed in a greenhouse at approximately 23° C. and a relative atmospheric humidity of approximately 70%.
The test is evaluated 7 days after the inoculation. 0% means an efficacy which corresponds to that of the untreated control, while an efficacy of 100% means that no disease is observed.

[4] = tested on: Alternaria solani; assay: Alternaria test (tomatoes)/preventive; details: for pest or weed control at 20 ppm: application rate 20 ppm a.i.
From the text: as §1, §2
Alternaria Test (Tomatoes)/Preventive • Solvent: 24.5 parts by weight of acetone • 24.5 parts by weight of dimethylacetamide • Emulsifier: 1 part by weight of alkylaryl polyglycol ether
as §3
as §4, with “Alternaria solani.” for “Sphaerotheca fuliginea.”, “an incubation cabinet” for “a greenhouse”, “20°” for “23°”, “100%.” for “approximately 70%.”
The test is evaluated 3 days after the inoculation. 0% means an efficacy which corresponds to that of the untreated control while an efficacy of 100% means that no disease is observed.

[5] = Table 6, application rate 2.5 ppm a.i.
[6] = Table 9, application rate 50 ppm a.i.
[7] = Alternaria solani, 72 h, Table 2, read-out: Efficacy in % found
[8] = Phytophthora infestans, 72 h, read-out: Efficacy in % found, Table 3, application rate 2.5 ppm a.i.
[9] = Venturia inaequalis, 240 h, Table 11, application rate 0.5 ppm a.i., read-out: Efficacy in % found
[10] = Table 5, application rate 2.5 ppm a.i.
[11] = Table 7, application rate 1 ppm a.i.
[12] = Table 3, application rate 2.5 ppm a.i.
[13] = Table 3, application rate 5 ppm a.i.
[14] = Venturia inaequalis, 240 h, Table 10, read-out: Efficacy in % found
[15] = Table 7, application rate 4 ppm a.i.
[16] = Table 3, application rate 1.25 ppm a.i.
[17] = Phytophthora infestans, 72 h, read-out: Efficacy in % found, Table 5, application rate 2.5 ppm a.i.
[18] = Phytophthora infestans, 72 h, read-out: Efficacy in % found, Table 4

For metiram [5.25], the “Efficacy in % found” value [1, 5] was 15%, the “Efficacy in % found” value ([2]; Table 13, application rate 100 ppm a.i.) was 55% and the “Efficacy in % found” value [3, 6] was 29%.
`Cc1cc(C)nc(Nc2ccccc2)n1` [7.7, pyrimethanil] showed a pest or weed control at 20 ppm [4, 7] of 32%.
Molecule `CCNC(=O)NC(=O)/C(C#N)=N/OC` [15.9, cymoxanil] has a pest or weed control at 2.5 ppm [1, 8] of 0% and a pest or weed control at 5 ppm ([1]; Phytophthora infestans, 72 h, read-out: Efficacy in % found, Table 3, application rate 5 ppm a.i.) of 0%.
`COC(=O)N(OC)c1ccccc1COc1ccn(-c2ccc(Cl)cc2)n1` [3.17, pyraclostrobin] was tested, and the pest or weed control at 0.5 ppm [2, 9] was 19%.
`CC(C)C1C2CCC1c1c(NC(=O)c3cn(C)nc3C(F)F)cccc12` (stereo not shown) [2.12, isopyrazam] was tested, and the “Efficacy in % found” value [1, 10] was 0%, the “Efficacy in % found” value [3, 11] was 19% and the “Efficacy in % found” value ([3]; Table 7, application rate 2 ppm a.i.) was 57%.
`Cn1c(=O)c2sc3c(=O)n(C)c(=O)c3sc2c1=O` [15.60, 2,6-dimethyl-1H,5H-[1,4]dithiino[2,3-c:5,6-c′]dipyrrole-1,3,5,7(2H,6H)-tetrone] gave a pest or weed control at 50 ppm ([4]; Alternaria solani, 72 h, Table 2, application rate 50 ppm a.i., read-out: Efficacy in % found) of 32% and a pest or weed control at 50 ppm ([2]; Venturia inaequalis, 240 h, Table 12, application rate 50 ppm a.i., read-out: Efficacy in % found) of 24%.
`CC(C)(C)C(O)(CCc1ccc(Cl)cc1)Cn1cncn1` (stereo not shown) [1.47, tebuconazole] showed a pest or weed control at 2 ppm ([2]; Venturia inaequalis, 240 h, Table 11, read-out: Efficacy in % found) of 11%.
In the case of `CSC1=N[C@@](C)(c2ccccc2)C(=O)N1Nc1ccccc1` [3.10, fenamidone], the pest or weed control at 0.5 ppm ([1]; Phytophthora infestans, 72 h, read-out: Efficacy in % found, Table 4, application rate 0.5 ppm a.i.) is reported as 3%.
With fosetyl-aluminium [15.24] the “Efficacy in % found” value [1, 12] was 0% and the “Efficacy in % found” value [1, 13] was 0%.
`O=C(Nc1ccccc1-c1ccc(Cl)cc1)c1cccnc1Cl` [2.2, boscalid] was tested, and the pest or weed control at 20 ppm ([2]; Venturia inaequalis, 240 h, Table 11, application rate 20 ppm a.i., read-out: Efficacy in % found) was 85%, the “Efficacy in % found” value ([3]; Table 8, application rate 20 ppm a.i.) was 62% and the “Efficacy in % found” value ([3]; Table 8, application rate 40 ppm a.i.) was 86%.
`CC(C)[C@H](NC(=O)O)C(=O)N[C@H](C)c1nc2ccc(F)cc2s1` [9.1, benthiavalicarb] was tested, and the “Efficacy in % found” value ([1]; Table 4, application rate 0.5 ppm a.i.) was 52%.
Molecule `COc1ccc(C(=CC(=O)N2CCOCC2)c2ccc(Cl)cc2)cc1OC` [9.2, dimethomorph] has a pest or weed control at 1 ppm ([1]; Phytophthora infestans, 72 h, read-out: Efficacy in % found, Table 4, application rate 1 ppm a.i.) of 20%.
`O=C1c2ccccc2C(=O)N1SC(Cl)(Cl)Cl` [5.16, folpet] gave a pest or weed control at 10 ppm ([4]; Alternaria solani, 72 h, Table 2, application rate 10 ppm a.i., read-out: Efficacy in % found) of 0%.
`OP(O)O` [15.41, phosphorous acid] was tested, and the “Efficacy in % found” value [1, 12] was 0% and the “Efficacy in % found” value [1, 13] was 13%.
`O=C(NCCc1ncc(C(F)(F)F)cc1Cl)c1ccccc1C(F)(F)F` [2.6, fluopyram] was tested, and the pest or weed control at 1 ppm ([4]; Alternaria solani, 72 h, Table 1, application rate 1 ppm a.i., read-out: Efficacy in % found) was 48%, the pest or weed control at 4 ppm [2, 14] was 21% and the “Efficacy in % found” value [3, 15] was 19%.
In the case of propineb [5.29], the “Efficacy in % found” value ([4]; Table 2, application rate 5 ppm a.i.) is reported as 0%.
In the case of `CCCCCCCCc1c(CC)nc2ncnn2c1N` [3.1, ametoctradin], the “Efficacy in % found” value [1, 16] is reported as 15% and the “Efficacy in % found” value [1, 12] is reported as 22%.
`CC(C)CC(C)c1sccc1NC(=O)c1cn(C)nc1C(F)(F)F` (stereo not shown) [2.21, penthiopyrad] showed a pest or weed control at 0.5 ppm ([4]; Alternaria solani, 72 h, Table 1, application rate 0.5 ppm a.i., read-out: Efficacy in % found) of 39%, a pest or weed control at 2.5 ppm [1, 17] of 0% and a pest or weed control at 2 ppm [2, 14] of 8%.
`Cc1c(Br)c2ccc(F)cc2n1S(=O)(=O)c1ncn(S(=O)(=O)N(C)C)n1` [3.2, amisulbrom] was tested, and the “Efficacy in % found” value ([1]; Table 4, application rate 1 ppm a.i.) was 19%.
`Cc1ccc(-c2c(Cl)nc(C#N)n2S(=O)(=O)N(C)C)cc1` [3.4, cyazofamid] gave a pest or weed control at 0.2 ppm [1, 18] of 8%.
`Cn1cc(C(=O)Nc2ccc(F)cc2-c2ccc(Cl)c(Cl)c2)c(C(F)F)n1` [2.1, bixafen] was tested, and the “Efficacy in % found” value ([2]; Table 10, application rate 1 ppm a.i.) was 84% and the “Efficacy in % found” value [3, 11] was 10%.
`[Cu+2].[OH-].[OH-]` [5.5, copper hydroxide] was tested, and the “Efficacy in % found” value [1, 5] was 18%, the “Efficacy in % found” value ([2]; Table 13, application rate 20 ppm a.i.) was 25% and the “Efficacy in % found” value ([3]; Table 9, application rate 10 ppm a.i.) was 29%.
For `Cn1cc(C(=O)Nc2ccccc2-c2cc(F)c(F)c(F)c2)c(C(F)F)n1` [2.8, fluxapyroxad], the “Efficacy in % found” value [1, 10] was 0%, the “Efficacy in % found” value ([2]; Table 10, application rate 0.5 ppm a.i.) was 25% and the “Efficacy in % found” value [3, 11] was 38%.
For `[Cl-].[Cu+2].[Cu+2].[OH-].[OH-].[OH-]` [5.8, copper oxychloride], the “Efficacy in % found” value [1, 5] was 0%, the “Efficacy in % found” value ([2]; Table 13, application rate 50 ppm a.i.) was 8% and the “Efficacy in % found” value [3, 6] was 10%.
For `OC(Cc1ccccc1Cl)(Cn1nc[nH]c1=S)C1(Cl)CC1` (stereo not shown) [1.41, prothioconazole], the “Efficacy in % found” value ([3]; Table 8, application rate 2 ppm a.i.) was 19%.
metalaxyl-M (mefenoxam) [12.10] was tested, and the “Efficacy in % found” value [1, 16] was 10% and the “Efficacy in % found” value [1, 12] was 36%.
In the case of `Cc1ccc(C(C)NC(=O)[C@@H](NC(=O)OC(C)C)C(C)C)cc1` (stereo partly shown) [9.4, iprovalicarb], the “Efficacy in % found” value ([1]; Table 4, application rate 2 ppm a.i.) is reported as 9%.
`COC(c1ccc(Cl)cc1Cl)C(C)NC(=O)c1cn(C)nc1C(F)F` (stereo not shown) [2.27, N-[1-(2,4-dichlorophenyl)-1-methoxypropan-2-yl]-3-(difluoromethyl)-1-methyl-1H-pyrazole-4-carboxamide] showed a pest or weed control at 2.5 ppm [1, 17] of 0%, a pest or weed control at 10 ppm ([1]; Phytophthora infestans, 72 h, read-out: Efficacy in % found, Table 5, application rate 10 ppm a.i.) of 8% and a pest or weed control at 2 ppm [2, 14] of 31%. For the same molecule, the pest or weed control at 4 ppm [2, 14] was 93% and the “Efficacy in % found” value [3, 15] was 81%.
In the case of `CO/C=C(/C(=O)OC)c1ccccc1Oc1cc(Oc2ccccc2C#N)ncn1` [3.3, azoxystrobin], the “Efficacy in % found” value ([2]; Table 11, application rate 0.25 ppm a.i.) is reported as 38%.
`Cn1cc(C(=O)Nc2cccc3c2[C@@H]2CC[C@H]3C2=C(Cl)Cl)c(C(F)F)n1` (racemic) [2.29, benzovindiflupyr] was tested, and the “Efficacy in % found” value [1, 10] was 0% and the “Efficacy in % found” value ([3]; Table 7, application rate 0.5 ppm a.i.) was 0%.
propamocarb hydrochloride [10.10] was tested, and the “Efficacy in % found” value [1, 5] was 0%, the “Efficacy in % found” value ([3]; Table 9, application rate 200 ppm a.i.) was 0% and the “Efficacy in % found” value ([3]; Table 9, application rate 400 ppm a.i.) was 0%.
`CCCCCOC(=O)Nc1cccc(CON=C(c2ccccc2)c2nnnn2C)n1` [15.90, pentyl {6-[({[(1-methyl-1H-tetrazol-5-yl)(phenyl)methylidene]amino}oxy)methyl]pyridin-2-yl}carbamate] showed a pest or weed control at 0.2 ppm [1, 18] of 10%.
With `CON=C(C(=O)OC)c1ccccc1CON=C(C)c1cccc(C(F)(F)F)c1` [3.22, trifloxystrobin] the pest or weed control at 0.5 ppm [2, 9] was 77%.
`CO/N=C(/C1=NOCCO1)c1ccccc1Oc1ncnc(Oc2ccccc2Cl)c1F` [3.12, fluoxastrobin] was tested, and the pest or weed control at 0.5 ppm [2, 9] was 44%.
`O=[N+]([O-])c1cc(C(F)(F)F)c(Cl)c([N+](=O)[O-])c1Nc1ncc(C(F)(F)F)cc1Cl` [14.4, fluazinam] showed a pest or weed control at 2.5 ppm [1, 8] of 0%.
In the case of `N#Cc1c(Cl)c(Cl)c(Cl)c(C#N)c1Cl` [5.4, chlorothalonil], the pest or weed control at 20 ppm [4, 7] is reported as 5% and the pest or weed control at 20 ppm ([2]; Venturia inaequalis, 240 h, Table 12, application rate 20 ppm a.i., read-out: Efficacy in % found) is reported as 14%.
